One experiment has as its system cholesterol. Kind of experiment: in vivo screen APCC, cholesterol in rats fed PCC diet with cholic acid. On the set-up: species or system male Sprague-Dawley rats. Conditions: APCC rats dosed at 4 PM, PCC diet with 1% or 0.5% cholic acid overnight, blood cholesterol at 8 AM; dose not given. From the text: In one in vivo screen, designated APCC, male Sprague-Dawley rats (200 to 225 g) were randomly divided into treatment groups and dosed at 4 PM with either vehicle (CMC/Tween) or suspensions of compounds in vehicle. The normal, chow diet was then replaced with the PCC diet (RR 740-02122) with either 1% or 0.5% cholic acid, as indicated. The rats consumed this diet ad libitum during the night and were sacrificed at 8 AM to obtain blood samples for cholesterol analysis using standard procedures (RR 740-02122). Statistical differences between mean cholesterol values for the same vehicle were determined using analysis of variance followed by Fisher's least significant test.

In experiment [1] the target is T1, acyl-CoA:cholesterol acyltransferase (ACAT) (Oryctolagus cuniculus, UniProt G1SFD9).
T1 construct: tissue preparation containing rabbit intestinal microsomes; from tissue; host or cells: rabbit intestinal microsomes
T1 sequence (G1SFD9 1-524): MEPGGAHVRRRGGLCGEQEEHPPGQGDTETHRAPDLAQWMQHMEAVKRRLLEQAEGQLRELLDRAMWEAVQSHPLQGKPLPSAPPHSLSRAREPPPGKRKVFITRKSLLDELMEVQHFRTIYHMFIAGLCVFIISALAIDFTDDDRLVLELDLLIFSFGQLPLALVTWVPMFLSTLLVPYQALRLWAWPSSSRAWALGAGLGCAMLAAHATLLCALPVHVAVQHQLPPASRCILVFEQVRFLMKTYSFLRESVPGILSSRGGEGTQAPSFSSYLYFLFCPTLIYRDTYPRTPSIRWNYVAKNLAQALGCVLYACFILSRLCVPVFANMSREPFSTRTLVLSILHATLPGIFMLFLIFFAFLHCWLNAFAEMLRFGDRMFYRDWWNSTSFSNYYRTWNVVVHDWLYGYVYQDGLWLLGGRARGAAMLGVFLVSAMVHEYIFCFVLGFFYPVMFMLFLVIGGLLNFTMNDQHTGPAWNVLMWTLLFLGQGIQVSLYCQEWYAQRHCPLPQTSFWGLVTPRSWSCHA
Kind of experiment: in vitro ACAT inhibition, acylation of cholesterol by oleic acid in tissue preparation containing rabbit intestinal microsomes. Type of experiment: biochemical. Conditions: concentration required to inhibit 50% […] of the enzyme. The procedure:
The ability of representative compounds of the present invention to inhibit ACAT was measured using an in vitro test more fully described in Field, F. J. and Salone, R. G., Biochemica et Biophysica 712: 557-570 (1982). The test assesses the ability of a test compound to inhibit the acylation of cholesterol by oleic acid by measuring the amount of radio-labeled cholesterol oleate formed from radiolabeled oleic acid in a tissue preparation containing rabbit intestinal microsomes.
The data appear in Table 1 where they are expressed as IC50 values; i.e. the concentration of test compound required to inhibit 50% […] of the enzyme.

As a reminder, the IC50 is the concentration at which inhibition is half-maximal. Read a low IC50 as greater potency. For `CC(C)c1cccc(C(C)C)c1NC(=O)CNC(c1ccccc1)c1ccccc1` [Example 4, N-[2,6-bis(1-Methylethyl)phenyl]-2-[(diphenylmethyl)amino]acetamide], in the experiment on cholesterol, the “% Change (mg/dl)” value was -45%. This compound had an IC50 in experiment [1] of 55 nM.
Taken in the same sequence, the figures for `CC(C)c1cccc(C(C)C)c1NC(=O)CN(CC1(c2ccccc2)CCCC1)C(=S)Nc1ccccc1` [Example 10, N-[2,6-bis(1-Methylethyl)phenyl]-2-[[(phenylamino)thioxomethyl][(1-phenylcyclopentyl)methyl]amino]acetamide] were -30% and 100 nM.
As to `CC(C)c1cccc(C(C)C)c1NC(=O)CN(CC1(c2ccccc2)CCCC1)C(=O)Nc1ccccc1` [Example 11, N-(2,6-bis(1-Methylethyl)phenyl]-2-[[(phenylamino)carbonyl][(1-phenylcyclopentyl)methyl]amino]-acetamide], in the experiment on cholesterol, the “% Change (mg/dl)” value is recorded as -3%.
On the same count and under the same terms, in the case of `Cc1ccc(S(=O)(=O)N(CC(=O)Nc2c(C(C)C)cccc2C(C)C)CC2(c3ccccc3)CCCC2)cc1` [Example 14, N-[2,6-bis(1-Methylethyl)phenyl]-2-[[(4-methylphenyl)sulfonyl][(1-phenylcyclopentyl)methyl]amino]acetamide] it was -24%.
In the case of `CC(C)c1cccc(C(C)C)c1NC(=O)[C@H](Cc1ccc(O)cc1)NC(=O)OC(C)(C)C` [Example 21, (S)-1,1-Dimethylethyl[2-[[2,6-bis-(1-methylethyl)phenyl]amino]-1-[(4-hydroxyphenyl)-methyl]-2-oxoethyl]carbamate], in experiment [1], the half-inhibitory concentration (IC50) was determined as 1050 nM.
Still for that read-out and setting: under `CC(C)c1cccc(C(C)C)c1NC(=O)[C@H](Cc1ccccc1)NC(=O)OC(C)(C)C` [Example 41, (S)-α-N-(2,6-Diisopropylphenyl)benzenepropanamide] stands 350 nM.
Take `Cc1ccc(S(=O)(=O)N[C@@H](Cc2ccccc2)C(=O)Nc2c(C(C)C)cccc2C(C)C)cc1` [Example 52, (S)-N-[2,6-bis(1-Methylethyl)phenyl]-α-[[(4-methylphenyl)sulfonyl]amino]benzenepropanamide]: the half-maximal inhibitory concentration (IC50) in experiment [1] is 960 nM.

For the origin of these results see patent US5153226A, “Acat inhibitors for treating hypocholesterolemia” (Warner-Lambert Company, priority 1990, dated 1992).
